In PMC6737244, “Cathelicidin Peptides Restrict Bacterial Growth via Membrane Perturbation and Induction of Reactive Oxygen Species” (mBio, 2019):
Ends that are not written are not given here.

Experiments:
[1] = test system: P. aeruginosa; assay: Growth of cultures (OD600) with sublethal peptide; details: 20 nM, 2 h, CAMHB
[2] = test system: E. coli; assay: Single-cell division time, time-lapse phase-contrast microscopy; assay type: cell-based, Escherichia coli; details: 30 nM, first three generations
Description: To confirm that sublethal levels of cathelicidins affected the growth of Gram-negative bacteria, the division of single cells of E. coli and E. cloacae was monitored. Cells were seeded into microfluidic chambers and grown under continuous flow, and time-lapse phase-contrast microscopy was used to record the cell division time in the presence or absence of B22a.
Imaging of individual cells was conducted using the CellAsic microfluidic perfusion system (ONIX) with integrated temperature controller and B04A bacterial microfluidic plates (EMD Millipore, Billerica, MA). The CellAsic ONIX FG software (v 5.0.2.0) was used to control flow rate and deliver fresh medium with or without antimicrobial peptide (AMP). The chambers were loaded by perfusion of 50 μl of a 10^6 cells/ml bacterial suspension at 2 lb/in^2 for 15 s to prime the cells followed by 4 lb/in^2 for 15 s to trap the cells. The chamber was then rinsed at 1 lb/in^2 for 30 s followed by 5 lb/in^2 for 5 min. To quickly switch solutions, medium was perfused at 10 lb/in^2 for 10 s, and then flow was reduced to 2 lb/in^2 for the remainder of the imaging.

[3] = test system: E. coli UTI89; assay: Differential gene expression after peptide exposure; assay type: cell-based, Escherichia coli; details: 30 nM, 5-min exposure
Description: To determine the mechanism by which sublethal concentrations of cathelicidins affect bacterial cell physiology, we sought to analyze gene expression prior to and after a 5-min exposure to 30 nM B22a. The chromosomal integron of V. cholerae contains hundreds of repeats and horizontally acquired genes of unknown function ([20][–][23]). Moreover, many of these genes are duplicated, which can further complicate interpreting gene expression patterns. We elected to examine peptide-induced expression changes in E. coli to simplify gene identification and assignment of potential functions. Significant changes in expression were identified for genes whose products participate in global processes such as protein synthesis, protein folding, protein secretion, intracellular pH, membrane modification, c-di-GMP production, peptidoglycan biosynthesis, respiration, and detoxification of reactive oxygen species (ROS) (Table 2). Perturbation of peptidoglycan synthesis was consistent with the membrane blebbing we observed following B22 and B22a treatment. Other notable changes included arnF, the product of which modifies the lipid A moiety of lipopolysaccharide (LPS) with 4-amino-4-deoxy-L-arabinose (L-Ara4N) to confer resistance to polymyxin and cationic antimicrobial peptides in E. coli and Salmonella enterica serotype Typhimurium ([24], [25]). c-di-GMP-dependent Psl exopolysaccharide production is part of the first line of defense against reactive oxygen species in P. aeruginosa ([26]). The respiratory chain is a major source of periplasmic ROS such as superoxide (O2^−) and hydrogen peroxide (H2O2) ([27]), and cytosolic flavoenzymes such as fumarate reductase (Frd) can generate O2^−, H2O2, and hydroxyl radical (^·OH) that damages membrane lipids, DNA, and proteins. ArcA is important for regulating bacterial resistance to ROS under aerobic conditions, and OxyR directly senses H2O2 to induce expression of a slew of genes, including ahpC and gshA, to counter H2O2 accumulation ([28], [29]).

FRKKLKKLFKKLSPVIPLLKLG [B22] was tested, and the “Initial growth of P. aeruginosa relative to control” value [1] was “significantly reduced”.
In the case of FRKKLKKLFKKLSPVIPLLKLG-NH2 [B22a], the Cell division time [2] is reported as “increased twofold”, the “Log2 fold change, ahpC (UTI89_C0608)” value [3] is reported as −1.35 and the “Log2 fold change, ansB (UTI89_C3346)” value [3] is reported as −3.26. The “Log2 fold change, arcA (UTI89_C5174)” value [3] was −1.55, the “Log2 fold change, ardB (UTI89_C2011)” value [3] was −1.39 and the “Log2 fold change, arnF (yfbJ) (UTI89_C2541)” value [3] was 1.44. For the same substance, the “Log2 fold change, arrD (UTI89_C1304)” value [3] was 2.56, the “Log2 fold change, asnA (UTI89_C4299)” value [3] was −1.38 and the “Log2 fold change, asnS (UTI89_C1002)” value [3] was −1.19. The “Log2 fold change, aspA (UTI89_C4736)” value [3] was −2.31, the “Log2 fold change, ccmH (UTI89_C2472)” value [3] was −1.19 and the “Log2 fold change, citB (UTI89_C0624)” value [3] was −2.71. For the same substance, the “Log2 fold change, cspA (UTI89_C4097)” value [3] was 1.44, the “Log2 fold change, cspG (UTI89_C1051)” value [3] was 1.67 and the “Log2 fold change, cybC (UTI89_C4840)” value [3] was −2.73. The “Log2 fold change, cyoD (UTI89_C0453)” value [3] was 1.80, the “Log2 fold change, cysM (UTI89_C2754)” value [3] was −2.60 and the “Log2 fold change, dapC (UTI89_C3862)” value [3] was −1.97. The “Log2 fold change, dcuA (UTI89_C4735)” value [3] was −2.63, the “Log2 fold change, dgkA (UTI89_C4612)” value [3] was −1.71 and the “Log2 fold change, eno (UTI89_C3148)” value [3] was −2.02. For the same substance, the “Log2 fold change, evgS (UTI89_C2702)” value [3] was 1.30, the “Log2 fold change, fabA (UTI89_C1019)” value [3] was −1.48 and the “Log2 fold change, fdoG (UTI89_C4481)” value [3] was 1.13. For the same substance, the “Log2 fold change, fimX (UTI89_C0338)” value [3] was 1.57, the “Log2 fold change, frdA (UTI89_C4754)” value [3] was −1.78 and the “Log2 fold change, frdB (UTI89_C4753)” value [3] was −2.97. The “Log2 fold change, fusA (UTI89_C3842)” value [3] was −1.22, the “Log2 fold change, gadX (UTI89_C4048)” value [3] was 1.74 and the “Log2 fold change, gapA (UTI89_C1975)” value [3] was −2.34. The “Log2 fold change, gmhB (UTI89_C0216)” value [3] was −2.02, the “Log2 fold change, gnd (UTI89_C2302)” value [3] was −1.41 and the “Log2 fold change, gshA (UTI89_C3050)” value [3] was −1.92. The “Log2 fold change, gsk (UTI89_C0505)” value [3] was 1.20, the “Log2 fold change, holE (UTI89_C2044)” value [3] was 2.85 and the “Log2 fold change, hslJ (UTI89_C1622)” value [3] was −1.15. The “Log2 fold change, manY (UTI89_C2016)” value [3] was −1.16, the “Log2 fold change, marR (UTI89_C1833)” value [3] was 1.29 and the “Log2 fold change, mcbR (UTI89_C1669)” value [3] was 2.96. For the same substance, the “Log2 fold change, mdoG (UTI89_C1172)” value [3] was 1.63, the “Log2 fold change, mrcB (UTI89_C0165)” value [3] was 1.85 and the “Log2 fold change, mrp (UTI89_C2387)” value [3] was −1.64. The “Log2 fold change, mtgA (UTI89_C3644)” value [3] was 1.90, the “Log2 fold change, napC (UTI89_C2480)” value [3] was −2.52 and the “Log2 fold change, narP (UTI89_C2471)” value [3] was −2.02. The “Log2 fold change, ompC (UTI89_C2497)” value [3] was −1.11, the “Log2 fold change, ompT (UTI89_C0566)” value [3] was 1.11 and the “Log2 fold change, orf (UTI89_C0124)” value [3] was 1.89. For the same substance, the “Log2 fold change, orf (UTI89_C1095)” value [3] was 1.47, the “Log2 fold change, orf (UTI89_C1152)” value [3] was 1.40 and the “Log2 fold change, orf (UTI89_C1286)” value [3] was 1.09. The “Log2 fold change, orf (UTI89_C3928)” value [3] was 1.10, the “Log2 fold change, orf (UTI89_C4380)” value [3] was −1.48 and the “Log2 fold change, oxyR (UTI89_C4554)” value [3] was 1.11. The “Log2 fold change, pflB (UTI89_C0974)” value [3] was −2.71, the “Log2 fold change, ptsK (UTI89_C2748)” value [3] was −1.06 and the “Log2 fold change, rpmE (UTI89_C4521)” value [3] was 1.08. For the same substance, the “Log2 fold change, rtcA (UTI89_C3920)” value [3] was −2.90, the “Log2 fold change, sdaB (UTI89_C3168)” value [3] was −3.16 and the “Log2 fold change, sdaC (UTI89_C3167)” value [3] was −2.21. For the same substance, the “Log2 fold change, secB (UTI89_C4151)” value [3] was −2.45, the “Log2 fold change, secY (UTI89_C3746)” value [3] was −1.36 and the “Log2 fold change, serS (UTI89_C0908)” value [3] was −2.29. For the same substance, the “Log2 fold change, torY (UTI89_C2077)” value [3] was 1.03, the “Log2 fold change, tpiA (UTI89_C4503)” value [3] was −1.16 and the “Log2 fold change, uspE (UTI89_C1604)” value [3] was 1.28. For the same substance, the “Log2 fold change, wbgM (UTI89_C2303)” value [3] was 1.29, the “Log2 fold change, xdhC (UTI89_C3253)” value [3] was −2.37 and the “Log2 fold change, yaaY (UTI89_C0026)” value [3] was 1.32. For the same substance, the “Log2 fold change, yacH (UTI89_C0130)” value [3] was 1.39, the “Log2 fold change, yaiS (UTI89_C2239)” value [3] was 1.92 and the “Log2 fold change, ybcS1 (UTI89_C1303)” value [3] was 2.14. The “Log2 fold change, ybfN (UTI89_C0686)” value [3] was 1.22, the “Log2 fold change, ybjD (UTI89_C0880)” value [3] was 1.31 and the “Log2 fold change, ycaD (UTI89_C0972)” value [3] was −1.66. For the same substance, the “Log2 fold change, yciL (UTI89_C1537)” value [3] was −1.27, the “Log2 fold change, ydeH (UTI89_C1760)” value [3] was 4.38 and the “Log2 fold change, ydiU (UTI89_C1899)” value [3] was 1.27. The “Log2 fold change, yecR (UTI89_C2105)” value [3] was −2.29, the “Log2 fold change, yehE (UTI89_C2386)” value [3] was −1.09 and the “Log2 fold change, yfaE (UTI89_C2517)” value [3] was −2.34. The “Log2 fold change, yfbR (UTI89_C2573)” value [3] was −1.89, the “Log2 fold change, yfcD (UTI89_C2583)” value [3] was −1.88 and the “Log2 fold change, yfeK (UTI89_C2753)” value [3] was −1.41. The “Log2 fold change, ygdI (UTI89_C3181)” value [3] was 1.30, the “Log2 fold change, ygdI (UTI89_C3182)” value [3] was 1.31 and the “Log2 fold change, ygdR (UTI89_C3236)” value [3] was 1.12. The “Log2 fold change, yghU (UTI89_C3411)” value [3] was −2.15, the “Log2 fold change, yhbQ (UTI89_C3582)” value [3] was −1.70 and the “Log2 fold change, yhbW (UTI89_C3587)” value [3] was −1.14. For the same substance, the “Log2 fold change, yhcO (UTI89_C3670)” value [3] was 1.80, the “Log2 fold change, yhdL (UTI89_C3736)” value [3] was 1.09 and the “Log2 fold change, yjbK (UTI89_C4616)” value [3] was 1.10. For the same substance, the “Log2 fold change, yjcC (UTI89_C4647)” value [3] was −1.25, the “Log2 fold change, yjeH (UTI89_C4739)” value [3] was −1.27 and the “Log2 fold change, yjeI (UTI89_C4742)” value [3] was −1.76. For the same substance, the “Log2 fold change, yjgF (ridA) (UTI89_C4848)” value [3] was 2.24, the “Log2 fold change, ykgH (UTI89_C0333)” value [3] was −2.93 and the “Log2 fold change, ymdC (UTI89_C1169)” value [3] was 1.04. For the same substance, the “Log2 fold change, ymgA (UTI89_C1348)” value [3] was 1.77, the “Log2 fold change, ynfJ (UTI89_C1779)” value [3] was −1.82 and the “Log2 fold change, ynhG (UTI89_C1870)” value [3] was 1.34. For the same substance, the “Log2 fold change, yqgD (UTI89_C3330)” value [3] was 1.11, the “Log2 fold change, yrdA (UTI89_C3724)” value [3] was 1.02 and the “Log2 fold change, yrdE (UTI89_C3686)” value [3] was −2.10.
